Earlier results in patent US20110290909A1, “MULTI-COMPONENT INSECT ATTRACTANT” (priority 2006, published 2011).

What was measured:
male melon flies = settings: cue lure compared with raspberry ketone
male melon fruit flies = settings: in vivo

SMILES: CC(=O)CCc1ccc(O)cc1 [raspberry ketone]
- effects on mating success (male melon flies): similar, short-lasting effects
- effectiveness as chemical attractant for male melon fruit flies (male melon fruit flies): very effective chemical attractant

SMILES: CC(=O)CCc1ccc(OC(C)=O)cc1 [cue lure]
- effects on mating success (male melon flies): similar, short-lasting effects
